In patent US10154988B2, “Methods and compositions for treating schizophrenia” (The Johns Hopkins University, priority 2012, dated 2018):

What was measured:
[1] = test system: aMCI subjects; test: neuropsychological tests outside the scanner (Buschke, Benton, Verbal Paired Associates); format: in vivo, human; conditions: 125 mg twice a day for two weeks
Source text: All participants undergo neuropsychological evaluation at the time of assessment for treatment efficacy (Visits 1 and 2), as well as at the Baseline Visit. The evaluation occurs outside of the scanner and includes the Buschke Selective Reminding Test (Buschke and Fuld, 1974) and the Verbal Paired Associates subtest, the Logical Memory subtest, the Visual Reproduction subtest of the Wechsler Memory Scale-Revised (WMS-R) (Wechsler, 1997), and the Benton Visual Retention Test, as these tasks are particularly sensitive to medial temporal lobe function and early memory problems (Marquis et al., 2002 and Masur et al., 1994). Additionally, subjects are asked to complete tests of more general cognitive function such as tests to assess general mental status, executive function, attention and general naming ability. All neuropsychological tests are administered by a trained research assistant during a 60-minute session. As the three neuropsychological assessments in this study occur within a time period of 8 weeks, different versions of the neuropsychological tests are used to minimize test specific practice effects. Breaks are provided to the subject as needed.

[2] = test system: aged-impaired (AI) rats; test: eight-arm Radial Arm Maze task, one-hour delay (levetiracetam, valproate, combination); format: in vivo, rat; conditions: for average no. of errors ± SEM in retention test: one-hour delay, vehicle 2.00±0.42; for reducing the number of errors in the radial arm maze: levetiracetam on its own
Experimental: The effects of levetiracetam on the spatial memory retention of aged-impaired (AI) rats are assessed in a Radial Arm Maze (RAM) behavioral task using vehicle control and five different dosage levels of levetiracetam (1.25 mg/kg/day, 2.5 mg/kg/day, 5 mg/kg/day, 10 mg/kg/day and 20 mg/kg/day). RAM behavioral tasks are preformed on ten AI rats. All six treatment conditions are tested on all ten rats, as described above for the MWM test. The RAM apparatus used consists of eight equidistantly-spaced arms. An elevated maze arm (7 cm width×75 cm length) projects from each facet of an octagonal center platform (30 cm diameter, 51.5 cm height). Clear side walls on the arms are 10 cm high and are angled at 65° to form a trough. A food well (4 cm diameter, 2 cm deep) is located at the distal end of each arm. Froot Loops™ (Kellogg Company) are used as rewards. Blocks constructed of Plexiglas™ (30 cm height×12 cm width) can be positioned to prevent entry to any arm. Numerous extra maze cues surrounding the apparatus are also provided. The AI rats are initially subjected to a pre-training test (Chappell et al. Neuropharmacology 37: 481-487, 1998). The pre-training test consists of a habituation phase (4 days), a training phase on the standard win-shift task (18 days) and another training phase (14 days) in which a brief delay is imposed between presentation of a subset of arms designated by the experimenter (e.g., 5 arms available and 3 arms blocked) and completion of the eight-arm win-shift task (i.e., with all eight arms available). In the habituation phase, rats are familiarized to the maze for an 8-minute session on four consecutive days. In each of these sessions food rewards are scattered on the RAM, initially on the center platform and arms and then progressively confined to the arms. After this habituation phase, a standard training protocol is used, in which a food pellet is located at the end of each arm. Rats receive one trial each day for 18 days. Each daily trial terminates when all eight food pellets have been obtained or when either 16 choices are made or 15 minutes had elapsed. After completion of this training phase, a second training phase is carried out in which the memory demand is increased by imposing a brief delay during the trial. At the beginning of each trial, three arms of the eight-arm maze are blocked. Rats are allowed to obtain food on the five arms to which access is permitted during this initial ‘information phase’ of the trial. Rats are then removed from the maze for 60 seconds, during which time the barriers on the maze are removed, thus allowing access to all eight arms. Rats are then placed back onto the center platform and allowed to obtain the remaining food rewards during this ‘retention test’ phase of the trial. The identity and configuration of the blocked arms varies across trials. The number of “errors” the AI rats make during the retention test phase is tracked. An error occurs in the trial if the rats enter an arm from which food had already been retrieved in the pre-delay component of the trial, or if it re-visits an arm in the post-delay session that has already been visited. After completion of the pre-training test, rats are subjected to trials with more extended delay intervals, i.e., a one-hour delay, between the information phase (presentation with some blocked arms) and the retention test (presentation of all arms). During the delay interval, rats remain off to the side of the maze in the testing room, on carts in their individual home cages. AI rats are pretreated 30-40 minutes before daily trials with a one-time shot of the following six conditions: 1) vehicle control (0.9% saline solution); 2) levetiracetam (1.25 mg/kg/day); 3) levetiracetam (2.5 mg/kg/day); 4) levetiracetam (5 mg/kg/day); 5) levetiracetam (10 mg/kg/day); 6) levetiracetam (20 mg/kg/day); […] Injections are given every other day with intervening washout days. Each AI rat is treated with all six conditions within 23 days of testing. […]

CC[C@@H](C(N)=O)N1CCCC1=O [levetiracetam, (2S)-2-(2-oxopyrrolidin-1-yl) butanamide]
performance in Benton Visual Retention Test [1]: fails to rescue performance
performance in Buschke Selective Reminding Test—Delayed Recall [1]: fails to rescue performance
performance in Verbal Paired Associates Test—Delayed Recall [1]: fails to rescue performance
performance in Verbal Paired Associates Test—Recognition [1]: fails to rescue performance
average no. of errors ± SEM in retention test ([2]; 5 mg/kg/day i.p., t(9)=2.18, p=0.057): 0.75±0.32
average no. of errors ± SEM in retention test ([2]; 10 mg/kg/day i.p., t(9)=2.37, p=0.042): 0.80±0.27
performance of AI rats in the radial maze task ([2]; levetiracetam 20 mg/kg): fails to improve the performance
reducing the number of errors in the radial arm maze ([2]; 1.25 mg/kg i.p.): not at 1.25 mg/kg or 2.5 mg/kg
reducing the number of errors in the radial arm maze ([2]; 2.5 mg/kg i.p.): not at 1.25 mg/kg or 2.5 mg/kg
reducing the number of errors in the radial arm maze ([2]; 5-10 mg/kg i.p.): effective in reducing the number of errors
